The results in this text go back to patent US20180263940A1, “TREATMENT OF SKIN CONDITIONS” (priority 2015, published 2018).

Assay [1] has as its system naturally parakeratotic tail scale skin. Put plainly: Ex vivo mouse tail scale assay. Format: cell-based. The settings on record: 4 days ex vivo. The protocol:
7-9 week old wild type mice of either gender were sacrificed and the tail skin tissue harvested then cultured 4 days on a porous membrane chamber insert with the epidermis exposed to air and dermis side in contact with media drawn through the porous membrane. Various concentrations and combinations of Mesalamine (2 mM and 5 mM) and Acitretin (1 μM) were added to the media or media alone used as a control. Media was refreshed after 48 hrs. Skins were then harvested on the 4 th day and fixed in 4% PFA overnight then stored in 80% Ethanol until processed and embedded in paraffin wax. 8 micron sections were then cut and stained with Haematoxylin and Eosin and analysed. Images were taken from at least 10 scales from 3 mice per treatment condition and the % orthokeratosis measured as defined in the figure legend for FIG. 13.

In assay [2] the test system is E16.5 embryonic back skin (Abca12 Lx12/Lx12 and Lx12/+). Put plainly: Harlequin Ichthyosis ex vivo embryo whole mount skin assay, cornified envelope thickening. It counts as cell-based, mouse. The conditions noted are these: 10 mM Mesalamine or 1 uM Acitretin, 4 days ex vivo. The protocol: Embryonic back skin was collected at E16.5 from across 3 litters generated by Abca12 Lx12/+ cross Abca12 Lx12/+ matings to generate Harlequin Ichthyosis embryos Abca12 Lx12/Lx12 and control siblings Abca12 Lx12/+ and Abca12+/+. The embryonic skin was then cultured 4 days on a porous membrane chamber insert with the epidermis exposed to air and dermis side in contact with media drawn through the porous membrane to permit maturation and adaptation to air. 10 mM Mesalamine or 1 uM Acitretin was supplied in the culture media and media refreshed at 48 hrs. Vehicle samples were left without drug treatment. Skins were then harvested on the 4th day and fixed in 4% PFA for 3-4 hrs then stored in 80% Ethanol until processed and embedded in paraffin wax. 8 micron sections were then cut and stained with Haematoxylin and Eosin and analysed. The percentage of skin thickness accounted for by the cornified envelope (cornified layer) was measured and results normalised as a fold change over the vehicle-treated control siblings in each assay. Wild type siblings were under represented in these litters so phenotypically normal heterozygote siblings were used as controls.

For assay [3], the system named is E16.5 embryonic mouse dorsal skin (Lx12/Lx12 HI mutant, Lx12/+, +/+). Description: Ex vivo chamber assay of E16.5 embryonic mouse dorsal skin during Harlequin Ichthyosis (HI) disease acquisition, H&E and immunofluorescent staining. Format: cell-based. The text has this:
The mouse strain ‘Abca12^tm1Lex’ NIH-0129 was obtained from Lexicon genetics and are referred to herein as Abca12Lx12/Lx12, or simply Lx12/Lx12, mice. These mice have a puromycin selection cassette-mediated exon 8 disruption and recapitulate the features of HI akin to other Abca12 mutant strains. All animal procedures complied with standards set under Australian guidelines for animal welfare and experiments were subject to Monash University animal welfare ethics review panels.
Anti-cleaved caspase 3 (#9664P) 1:100 (IHC) Cell Signalling Technologies, USA. Anti-filaggrin (PRB-417P) 1: 1000 (IHC) Covance, USA. Anti-involucrin (PRB-140C) 1: 1000 (IHC) Covance, USA. Antikeratin 10 (PRB-159P) 1: 500 (IHC) Covance, USA. Antikeratin 10 (sc-23877) 1: 100 (IHC) Santa Cruz Biotechnology USA. Anti-keratin 14 (LL002) (ab7800) 1: 250-1000 (IHC) Abcam, UK. Anti-loricrin (PRB-145P) 1: 1000 (IHC) Covance, USA. Molecular Probes AlexaFluor A488 and 555 secondary antibodies raised in Donkey, against rabbit or mouse, were used at 1: 600, from Life Technologies. Nuclei stains used included DAPI (Sigma-Aldrich) 1: 1000. DAB staining was performed by the Monash Histology Platform using Leica autostainers and Dako products.
The ability of mesalamine to rescue the impaired differentiation in an HI mouse model, which represents an extremely severe inflammatory skin disease, was tested. Embryonic back skins at E16.5 were harvested from a litter containing wild type, heterozygous and HI embryos. The skin was divided into two pieces and each cultured for 4 days in a standard ex vivo chamber assay, where the skin rests dermis-side down on a chamber insert membrane and draws cell culture media up from the below well, forming an air face on the epidermis side and liquid face for the dermal side, similar to the normal skin environment. Mesalamine was added in the media of one of each pair of skins at 10 mM (the active concentration determined to have most impact in the gut for intestinal diseases).

The test system of assay [4] is E18.5 embryonic mouse dorsal skin (Lx12/Lx12 HI mutant, Lx12/+, +/+). Put plainly: Ex vivo chamber assay of E18.5 embryonic mouse dorsal skin after HI disease acquisition, H&E. The settings on record: 4 days ex vivo. It counts as cell-based. As to the method: Representative Haematoxylin and Eosin staining of embryonic mouse dorsal skin from two E18.5 litters, cultured ex vivo for 4 days on chamber inserts, with 1 or 10 mM mesalamine in standard culture media or vehicle alone is shown in FIG. 9. +/+ presents wild type skin. Lx12/Lx12 represents the HI mutant skin and Lx12/+ represents seemingly normal skin carrying the recessive HI mutant allele. Note once again the abnormality observed in the spinous layer, loss of the granular layer and proportional thickening of the stratum corneum in Lx12/Lx12 (HI) vehicle treated skins. Lx12/+ skins also appeared slightly abnormal relative to +/+ vehicle treated skins. […] Images are repeated in grayscale.

The next assay has as its system GRHL3 −/− epidermis. Put plainly: Ex vivo whole mount assay of GRHL3 -/- skin (proxy model of Lamellar Ichthyosis), cornified layer thickness. It counts as cell-based, mouse. The conditions noted are these: E16.5, 10 mM, 4 days ex vivo. The protocol:
Embryonic back skin was collected at E16.5 from litters generated by GRHL3+/− cross Abca12 GRHL3+/− matings to generate Ichthyosis embryos GRHL3 −/− and control siblings GRHL3+/− and GRHL3+/+. The embryonic skin was then cultured 4 days on a porous membrane chamber insert with the epidermis exposed to air and dermis side in contact with media drawn through the porous membrane to permit maturation and adaptation to air. Skins were then harvested and fixed in 4% PFA for 3-4 hrs then stored in 80% Ethanol until processed and embedded in paraffin wax. 8 micron sections were then cut and stained with Haematoxylin and Eosin and analysed.

Assay [5] deals with E16.5 embryonic mouse dorsal skin (Lx12/Lx12 HI mutant, Lx12/+, +/+). Description: Ex vivo chamber assay of E16.5 embryonic mouse dorsal skin during Harlequin Ichthyosis (HI) disease acquisition, H&E and immunofluorescent staining. Format: cell-based. The conditions noted are these: second E16.5 litter, 1 or 10 mM, 4 days ex vivo.
Where [6] appears, read: Harlequin Ichthyosis (Lx12/Lx12) skins.
The mark [7] stands for this setting: control heterozygous Lx12/+ skins.
[8] abbreviates: Lx12/+ skin, 10 mM, 4 days ex vivo.
The mark [9] stands for this setting: Lx12/Lx12 skin, 10 mM, 4 days ex vivo.

Entries after “also recorded” stand apart in the source; their conditions may differ.

Take `COc1cc(C)c(/C=C/C(C)=C/C=C/C(C)=C/C(=O)O)c(C)c1C` [Acitretin]: in assay [1] (1 μM Acitretin), the Orthokeratosis entry was “promoted orthokeratosis”. For the same compound, the “Cornified layer proportion of skin thickness” value in assay [2] (setting [6]) and in assay [2] (setting [7]) was “no significant effect” in each case.
On to `Nc1ccc(O)c(C(=O)O)c1` [Mesalamine, 5-aminosalicylic acid], for which the “Skin differentiation defects in HI” value in assay [3] (10 mM in media, pair matched skins across genotypes) is reported as “significantly rescued”. Further, the “Epidermis morphology (Haematoxylin and Eosin)” value in assay [3] (+/+ wild type skin, 10 mM, 4 days ex vivo) is listed as “did not however appear to greatly effect”; in assay [3] (Lx12/Lx12 (HI) skin, 10 mM, 4 days ex vivo) it was “acquires a more-normal appearance”; in assay [4] (Lx12/Lx12 (HI) skin, E18.5, 1 mM), “acquires a more-normal appearance”; in assay [4] (all genotypes, E18.5, 10 mM) it was “reducing the keratinocytes accumulating in the spinous layers”; in assay [5], “acquires a more-normal appearance”. The “Apoptosis (cleaved-Caspase-3 positive cells)” value in assay [3] (Lx12/+ and Lx12/Lx12 skin, 10 mM, 4 days ex vivo) is “apoptosis is reduced”. Besides, the “Granular layer Filaggrin (FLG)” value was “restored” in assay [3] (setting [8]) and “partially restored” in assay [3] (setting [9]). In addition, the entries for the “Keratin 10 (K10) positive keratinocytes” value in assay [3] (setting [8]) and in assay [3] (setting [9]) were “revert to normal levels” and “some modest improvement”, respectively. The “Involucrin (INV) expression” value in assay [3] (setting [9]) was “a more organised, and delayed (granular layer) expression”. Moreover, the “Loricrin (LOR) expression” value in assay [3] (setting [9]) was “a more normal, predominantly granular layer expression”. In addition, in the assay on GRHL3 −/− epidermis, the Cornified layer thickening entry is recorded as “reduced hyper-thickening of the cornified layer; also recorded: loss of thickening”. In addition, the “Orthokeratosis compared with 1 μM Acitretin” value in assay [1] (2 mM Mesalamine) is “performing similarly to 1 μM Acitretin”. The Orthokeratosis result in assay [1] (2 mM and 5 mM Mesalamine in the culture medium) is given as “dose dependent increase in orthokeratosis”. The “Cornified layer proportion of skin thickness” value in assay [2] (setting [6]) is on record as “reduced the cornified layer proportion to vehicle control levels”; in assay [2] (setting [7]), “reduced the thickness”.
